Reference: patent US11559528B2, “BACE1 inhibition for the treatment of cancer” (The Cleveland Clinic Foundation, priority 2019, dated 2023)
“Also recorded” adds a separate entry of the source.

Legend:
AGS gastric cancer cells = test: Subcutaneous stomach cancer xenografts (AGS); assay type: in vivo, mouse; conditions: 50 mg/kg once daily oral gavage, from two weeks after inoculation; p<0.05
Text: FIG. 22, panels A-C, show treatment with the BACE1 Inhibitor MK-8931 reduced tumor growth of gastric cancer. (A-C) A preclinical trial of MK-8931 for stomach cancer treatment in xenograft models. AGS gastric cancer cells (3×106) were transplanted into mouse right flank through subcutaneous injection to establish subcutaneous stomach cancer xenografts. […] Tumors dissected from mice of each group were photographed (B) and weighed (C).

[1] = cited from earlier work
GBM xenografts (T387) = test: Intracranial GBM xenografts from T387 glioma stem cells; assay type: in vivo, mouse
Text: FIG. 13, panels A-C. BACE1 Inhibition by MK-8931 Converts M2 TAMs into M1 Macrophages in GBM Xenografts. (A and B) Density analysis of M2 TAMs by immunofluorescent staining of the M2 TAM marker (CD163 or FIZZ1) and the total TAM marker IBA1 and in GBM xenografts (T387) treated with MK-8931 or vehicle control. GBM xenografts were established by implantation of glioma stem cells (T387) through intracranial injection. […] Representative immunofluorescent images (A) showing M2 TAMs (CD163′ or FIZZ1^+, in red) and total TAMs (IBA1^+, in green) in the MK-8931-treated or control GBM xenografts. […] (C and D) Density analysis of M1 TAMs by immunofluorescent staining of the M TAM marker (HLA-DR or CD11c) and the total TAM marker IBA1 and in GBM xenografts (T387) treated with MK-8931 or vehicle control. […] Representative immunofluorescent images (C) showing M1 TAMs (HLA-DR^+ or CD11c^+, in red) and total TAMs (IBA1^+, in green) in the MK-8931-treated or control GBM xenografts. […] Scale bars represent 3 μM. Ctl: Control; MK: MK-8931.
(A-C) A preclinical trial of MK-8931 for GBM treatment in GSC-derived xenograft models. […] When humane endpoints occur, mouse was anesthetized and brain bearing tumor was harvested. Representative bioluminescent images (A) of intracranial GBM xenografts treated with MK-8931 or the vehicle control on day 7 (before treatment), day 17 and day 27 (treatment for 10 and 20 days) are shown. […] (D and E) In vivo phagocytosis of TAMs against human glioma cells in GBM xenografts treated with MK-8931 or the vehicle control. […] Representative images (D) showing in vivo TAM phagocytosis as the inclusion body of a glioma cell (TRA-1-85+, in red) within a TAM (IBA1^+, in green) in the MK-8931 treated GBM xenografts but not in the control tumors. […] (F and G) Detection of apoptosis by immunofluorescent staining of cleaved caspase-3 the GSC-derived xenografts treated with MK-8931 or the vehicle control. […] (H and I) Vessel density analysis by immunofluorescent staining of CD31 in the GSC-derived xenografts treated with MK-8931 or the vehicle control.

STAT3 (pSTAT3-Y705) = test: Immunoblot of STAT3 activating phosphorylation in U937-derived M2 macrophages; assay type: cell-based, human; conditions: MK-8931 50 μg/mL three days
Text: FIG. 7, panels A-G. BACE1 Maintains M2 Macrophages through STAT3 Activation (A) Immunoblot analyses of STAT3 and STAT6 activation (pSTAT3-Y705 and pSTAT6-Y641) in U937-derived M2 macrophages affected by BACE1 knockdown. […] (B) Immunoblot analysis of STAT3 and STAT6 activation (pSTAT3-Y705 and pSTAT6-Y641) in U937-derived M2 macrophages in response to MK-8931 treatment. […] (C-E) In vivo analysis of STAT3 activating phosphorylation in TAMs by double immunofluorescent staining of IBA1 with pSTAT3-Y705 in GBM xenografts treated with MK-8931 or vehicle control. GBM xenografts were established by implantation of glioma stem cells (T4121) through intracranial injection. […] Representative images (C) showing the fluorescent staining of IBA1 (in green) and the pSTAT3 (in red) in MK-8931-treated or control GBM xenografts. […] Scale bar represents 3 μM. Ctl: Control. MK: MK-8931. […] Ectopic expression of STAT3-C attenuated the M2 to M1 switch caused by BACE1 knockdown.

[2] = test system: GBM xenografts derived from T4121 GSCs; test: Intracranial GBM xenografts from T4121 glioma stem cells; assay type: in vivo, mouse
HepG2 liver cancer cells = test: Subcutaneous liver cancer xenografts (HepG2); assay type: in vivo, mouse; conditions: 50 mg/kg once daily oral gavage, from two weeks after inoculation; p<0.05
Text: (A-C) A preclinical trial of MK-8931 for liver cancer treatment xenograft models. HepG2 liver cancer cells (5×106) were transplanted into mouse right flank through subcutaneous injection to establish subcutaneous liver cancer xenografts. […] Tumors dissected from mice of each group were photographed (B) and weighed (C).

[3] = 30 mg/kg once daily oral gavage two weeks, p<0.001
[4] = 30 mg/kg once daily oral, p<0.01
[5] = 30 mg/kg once daily oral, p<0.05

For CN1C(N)=N[C@](C)(c2cc(NC(=O)c3ccc(F)cn3)ccc2F)CS1(=O)=O [MK-8931], the “tumor growth (tumor weight)” value (AGS gastric cancer cells) is given as “significantly reduced tumor growth of gastric cancer”, the “efficacy in phase 3 AD clinical trials” value ([1]; AD patients) is given as “ineffectiveness in controlling AD progression or improving life quality of AD patients” and the “tolerability / safety in AD clinical trials” value ([1]; patients, Phase I to Phase III) is given as “well-tolerated for patients; also recorded: very safe in the clinical trials for AD treatment; also recorded: well-tolerated in human and showed little toxic effect; also recorded: very safe for patients”. The “density of M1 TAMs (HLA-DR+/IBA1+ or CD11c+/IBA1+)” value (GBM xenografts (T387); [3]) was “significantly increased density of M1 TAMs”, the “density of M2 TAMs (CD163+/IBA1+ or FIZZ1+/IBA1+)” value (GBM xenografts (T387); [3]) was “significantly reduced density of M2 TAMs” and the “tumor growth (mean bioluminescence)” value (GBM xenografts (T387); 30 mg/kg once daily oral, day 7, 17 and 27) was “Suppressed GBM Tumor Growth”. The “survival (Kaplan-Meier)” value (GBM xenografts (T387); 30 mg/kg once daily oral, log-rank p<0.05) was “significantly extended the survival of animals bearing the GBM xenografts”, the “apoptosis (cleaved caspase-3+ cells)” value (GBM xenografts (T387); [4]) was “significantly increased apoptosis” and the “in vivo TAM phagocytosis (inclusion bodies)” value (GBM xenografts (T387); [4]) was “promoted TAM phagocytosis”. For the same compound, the “proliferative cells (Ki-67+)” value (GBM xenografts (T387); [4]) was “significantly reduced proliferative cells”, the “GSC population (SOX2+ cells)” value (GBM xenografts (T387); [5]) was “significant reduced GSCs” and the “vessel density (CD31)” value (GBM xenografts (T387); [5]) was “significantly reduced vessel density”. The “activating phosphorylation of STAT3 (pSTAT3-Y705)” value (STAT3 (pSTAT3-Y705)) was “significantly down-regulated”, the “IL1β expression (IHC intensity)” value [2, 3] was “significantly induced IL1β expression” and the “IL10 expression (IHC intensity)” value [2, 3] was “significantly reduced IL10 expression”. The “TGF-β expression (IHC intensity)” value [2, 3] was “significantly reduced TGF-β expression”, the “TNFα expression (IHC intensity)” value [2, 3] was “significantly induced TNFα expression” and the “tumor growth (mean bioluminescence)” value ([2]; 30 mg/kg/daily oral, Days 7, 14, and 21) was “significantly inhibited tumor growth of GBM xenografts”. The “survival (Kaplan-Meier)” value ([2]; 30 mg/kg/daily oral, log-rank p<0.01) was “significantly extended the survival of mice bearing the GBM tumors”, the “apoptosis (cleaved caspase-3+ cells)” value ([2]; 30 mg/kg/daily oral, p<0.001) was “significantly increased apoptosis” and the “GSC population (SOX2+ cells)” value ([2]; 30 mg/kg/daily oral, p<0.01) was “significantly reduced GSCs”. For the same compound, the “proliferative cells (Ki-67+)” value ([2]; 30 mg/kg/daily oral, p<0.01) was “significantly reduced proliferative cells”, the “vessel density (CD31)” value ([2]; 30 mg/kg/daily oral, p<0.01) was “significantly reduced vessel density” and the “tumor growth (tumor weight)” value (HepG2 liver cancer cells) was “significantly inhibited liver tumor growth”.
